Results reported in patent US8951982B2, “Methods and compositions for the treatment of eye disorders with increased intraocular pressure” (Sylentis S.A.U., priority 2004, dated 2015).
d = 2'-deoxy (DNA)

Assays:
CA2 = assay: siRNA transfection of cells, real time PCR of target gene expression; type: cell-based; settings: 100 nM siRNA, mean ± SD, normalized to beta-actin
Description: (§1) Cells (either NPE, OMDC, or HEK293 cells) were incubated with various siRNA molecules and assayed for expression of the native mRNA corresponding to the siRNA molecule. One day prior to transfection, 2−4×10^5 cells were seeded into each well of a 6 well plate in 3 ml of growth medium (DMEM, 10% serum, antibiotics and glutamine) and incubated under normal growth conditions (37° C. and 5% CO2). Lipofectamine 2000 Reagent (Invitrogen Corporation, Carlsbad, Calif.) was used to transfect the cells with the siRNA molecules. The protocol supplied by the manufacturer was followed. Briefly, siRNA molecules were added to cells that were 30%-50% confluent to a final concentration of 100 nM. Prior to addition to the cells, the siRNA molecule was diluted in 250 μl DMEM and incubated at room temperature for 5 minutes. The siRNA was then mixed with 6 μl of Lipofectamine 2000 Reagent that also had been diluted in 250 μl DMEM and the mixture was incubated at room temperature for 20 minutes. The siRNA/Lipofectamine mixture was added to the cells drop-wise with 2 ml of fresh growth medium low in antibiotics. After swirling the plates to ensure uniform distribution of the transfection complexes, the cells were incubated under normal growth conditions for 24 hours. After incubation with either of the transfection complexes, the medium was removed and replaced with 3 ml of fresh complete growth medium. mRNA was collected from cells at 24, 48 and 72 hours post-transfection.
(§2) After transfection and incubation with a siRNA molecule, total RNA fractions were extracted from cells using protocols well known in the art. The effect of siRNAs on target gene expression was analyzed by real time PCR and semi-quantitative PCR according to standard protocols. Approximately 250 ng of total RNA was used for reverse transcription followed by PCR amplification with specific primers for the target gene in a reaction mixture containing SYBR Green I Dye (Applied Biosystems, Foster City, Calif.). Basic PCR conditions comprised an initial step of […], followed by 40 cycles of 5 s at 95° C., 10 s at 62° C. and 15 s at 72° C. Quantification of beta-actin mRNA was used as a control for data normalization.
(§3) The values represent the mean of the percentage of siRNA interference of each gene expression once normalized with the control cells and their standard deviations.

[1] = tested on: Normotensive New Zealand White rabbits; assay: In vivo rabbit model of IOP (contact tonometer); settings: for decrease of IOP over a saline control: figure legends (FIGS. 5-8), 256 μg dose of siRNA per administration; for IOP Reduction (% of saline control): mean normalized maximum percentage of IOP reduction ± SD, topical to corneal surface, once daily for four consecutive days
Description: Normotensive New Zealand White rabbits (males, 2-3 kg) were used in the in vivo assays. The animals were kept in individual cages with free access to food and water. Animals were submitted to artificial 12 hours light/darkness cycles to avoid uncontrolled circadian oscillations of IOP and all experiments were performed at the same time of day to control for any fluctuations in IOP due to circadian oscillations. Animal handling and treatment were carried out in accordance with the European Communities Council Directive (86/609/EEC) and the statement of the Association for Research in Vision and Ophthalmology on the Use of Animals in Ophthalmic and Vision Research. Each animal was used for only one experiment.
IOP measurements were done using a contact tonometer (TonoPen XL, Mentor, Norwell, Mass.) due to past success of measuring intraocular pressures within the range of 3 to 30 mm Hg in rabbits (Abrams et al., 1996, Invest Ophthalmol Vis Sci. 37:940-4). Measurements were performed by delicately applying the tonometer's sensor to the corneal surface of the animal. All measurements fell within the 3 to 30 mm Hg interval with the mean baseline value of intraocular pressure being 17.0±0.39 mm Hg for untreated animals (n=100). In order to avoid distress to the animal, rabbits were topically anesthetized (10 μl of oxibuprocaine/tetracaine, 0.4%/1%, in a saline solution (1/4 v:v)) prior to IOP measurement.
Commercially available drugs were typically administered to the animals by instilling a small volume (typically 40 μl) on the corneal surface. Contralateral eyes were treated with the vehicle alone and were used as controls in each experiment.
siRNA molecules or commercially available drugs were typically administered to the animals as follows. Doses of siRNA in saline solution (0.9% w/v) to a final volume of 40 μl were applied to the corneal surface of one eye each day during four consecutive days. The opposite eye was taken as a control and 40 μl of sterile saline (0.9% w/v) was instilled on it at the same time points. Commercially available drugs were typically administered to the animals by instilling a small volume (typically 40 μl) on the corneal surface. Contralateral eyes were treated with the vehicle alone and were used as controls in each experiment. The IOP was measured before each application and at 2 h, 4 h and 6 h following the instillation for 10 days.
The data are summarized in Table 2 where values represent the mean of the normalized maximum percentage of IOP reduction after siRNA treatment and their standard deviations. The decrease in IOP was statistically significant for all the treated targets.

PTGS1 = assay: siRNA transfection of cells, real time PCR of target gene expression; type: cell-based; settings: 100 nM siRNA, mean ± SD
Description: as §1, §2, §3

PTGS2 = assay: as above; type: cell-based; settings: 100 nM siRNA, mean ± SD
Description: as §1, §2, §3

“SEQ ID NO: 54: siRNA targeting CA2 (CUUCCCUGAGGAUCCUCAA; 3' dTdT, sugars by position and backbone not given here; listed as Homo sapiens)” was tested, and the “% of gene transcript level in control cells” value (shortened to “% of gene transcript level”) (CA2; 24 h post-transfection) was 37.97 ± 9.78% and the “% of gene transcript level” value (CA2; 48 h post-transfection) was 61.45 ± 9.62%.
In the case of “SEQ ID NO: 66: siRNA targeting CA2 (CUUCACUUGGUUCACUGGA; 3' dTdT, sugars by position and backbone not given here; listed as Homo sapiens)”, the “% of gene transcript level” value (CA2; 24 h post-transfection) is reported as 35.30 ± 9.73% and the “% of gene transcript level” value (CA2; 48 h post-transfection) is reported as 51.14 ± 16.49%.
“SEQ ID NO: 73: siRNA targeting human carbonic anhydrase II (CA2), 2 thymidine 3' overhang (GGUUGGCAGCGCUAAACCG; 3' dTdT, sugars by position and backbone not given here; listed as Homo sapiens)” was tested, and the “% of gene transcript level” value (CA2; 24 h post-transfection) was 76.25 ± 12.60%, the “% of gene transcript level” value (CA2; 48 h post-transfection) was 84.57 ± 14.70% and the “decrease of IOP over a saline control” value [1] was 25%.
“SEQ ID NO: 353: siRNA targeting PTGS1 (prostaglandin endoperoxide synthase 1) (CCAUCUCUACCACUGGCAC; 3' dTdT, sugars by position and backbone not given here; listed as Homo sapiens)” was tested, and the “% of gene transcript level” value (PTGS1; 24 h post-transfection) was 42.25 ± 13.76% and the “% of gene transcript level” value (PTGS1; 48 h post-transfection) was 42.68 ± 17.00%.
In the case of “SEQ ID NO: 369: siRNA targeting PTGS1 (CAUUGUCAAGACGGCCACA; 3' dTdT, sugars by position and backbone not given here; listed as Homo sapiens)”, the “% of gene transcript level” value (PTGS1; 24 h post-transfection) is reported as 34.98 ± 14.33% and the “% of gene transcript level” value (PTGS1; 48 h post-transfection) is reported as 26.30 ± 10.91%.
In the case of “SEQ ID NO: 421: siRNA targeting PTGS2 (CACAACAGAGUAUGCGAUG; 3' dTdT, sugars by position and backbone not given here; listed as Homo sapiens)”, the “% of gene transcript level” value (PTGS2; 24 h post-transfection) is reported as 81.00 ± 13.54% and the “% of gene transcript level” value (PTGS2; 48 h post-transfection) is reported as 66.85 ± 18.67%.
In the case of “SEQ ID NO: 426: siRNA targeting PTGS2 (prostaglandin endoperoxide synthase 2) (GCAGGCUAAUACUGAUAGG; 3' dTdT, sugars by position and backbone not given here; listed as Homo sapiens)”, the “% of gene transcript level” value (PTGS2; 24 h post-transfection) is reported as 68.68 ± 12.48%, the “% of gene transcript level” value (PTGS2; 48 h post-transfection) is reported as 70.17 ± 19.21% and the “decrease of IOP over a saline control” value [1] is reported as 22%. For the same substance, the “IOP Reduction (% of saline control)” value [1] was 23.78 ± 2.27%.
With “SEQ ID NO: 477: siRNA targeting PTGS2 (CACUGCCUCAAUUCAGUCU; 3' dTdT, sugars by position and backbone not given here; listed as Homo sapiens)” the “% of gene transcript level” value (PTGS2; 24 h post-transfection) was 75.45 ± 14.71% and the “% of gene transcript level” value (PTGS2; 48 h post-transfection) was 61.83 ± 16.96%.
“SEQ ID NO: 1850: siRNA targeting PTGS1; rabbit homolog of SEQ ID NO: 322 (CGUGAGCUAUUACACGCGU; 3' dTdT, sugars by position and backbone not given here; duplex siRNA; listed as Oryctolagus sp.)” was tested, and the “IOP Reduction (% of saline control)” value [1] was 14.62 ± 1.93%.
For “SEQ ID NO: 1856: siRNA, rabbit homolog of SEQ ID NO: 546; target printed ADRAIA (GACCGACAAAUCCGACUCG; 3' dTdT, sugars by position and backbone not given here; duplex siRNA; listed as Oryctolagus sp.)”, the “IOP Reduction (% of saline control)” value [1] was 9.51 ± 1.04%.
With “SEQ ID NO: 1858: siRNA, rabbit homolog of SEQ ID NO: 619; target printed ADRAM (GAACUUUCAUGAGGACACC; 3' dTdT, sugars by position and backbone not given here; duplex siRNA; listed as Oryctolagus sp.)” the “IOP Reduction (% of saline control)” value [1] was 17.48 ± 1.30%.
With “SEQ ID NO: 1859: siRNA targeting AGTR1; rabbit homolog of SEQ ID NO: 705 (ACUCAAGACUGUGGCCAGU; 3' dTdT, sugars by position and backbone not given here; duplex siRNA; listed as Oryctolagus sp.)” the “IOP Reduction (% of saline control)” value [1] was 9.72 ± 1.35%.
“SEQ ID NO: 1860: siRNA targeting ACE1; rabbit homolog of SEQ ID NO: 866 (CUGGAACUAUAACACCAAC; two-thymidine 3' overhang, other chemistry not given here; listed as Oryctolagus sp.)” was tested, and the “IOP Reduction (% of saline control)” value [1] was 17.51 ± 1.28%.
